Source: US12678453B2, “Aerosolized formulations of HIV protease inhibitors for the treatment of airway reflux” (The Medical College of Wisconsin, Inc., priority 2020, dated 2026)
“Also recorded” adds a separate entry of the source.

Columns and labels:
[1] = known clinical profile; cited from earlier work
porcine pepsin [2] = target: T1, porcine pepsin (Sus scrofa, UniProt P00791); assay: competitive binding assay (fluorescence polarization, pepstatin-Alexa647 probe); conditions: 100 nM pepstatin-Alexa647, 0.03U/ul pepsin, 37.5% DMSO; FIG. 3A
T1 construct: purchased Worthington (Lakewood, NJ)
From the text: (§1) Fluorescent polarization assays were developed to test compound binding and inhibition of pepsin (FIG. 1). A competitive binding assay was developed using pepstatin, a known inhibitor of pepsin with subnanomolar affinity^91 (Roberts 2003). This binding assay measures the relative binding affinity but not the enzymatic inhibition of compounds. Thus, a separate peptic activity assay was developed, which uses fluorescently labelled alpha casein as substrate. Both assays are based on the principle of fluorescence polarization (FP), which holds that as the molecular size of a fluorescent species is altered through dissociation/breakdown or association/binding events, the degree of depolarization of plane polarized light changes accordingly, directly affecting the FP value.^92 (Lea 2011). In the assays used herein, millipolarization (mP) decreases as casein-Alexa647 is degraded by pepsin and increases with binding of pepsin to pepstatin-Alexa647.
(§2) Assays were performed in 20 ul volumes in 384-well black optical plates (Nunc, Roskilde, DK). Pepstatin dose response curves were used to optimize pepsin/inhibitor concentrations and assay incubation times. Dose response was performed using 0.3-1000 uM unlabeled pepstatin with 100-500 nM pepstatin-Alexa647 probe, 0.003-3U/μl porcine pepsin (Worthington, Lakewood, NJ), and 10-37% dimethyl sulfoxide (HIV protease inhibitor diluent) in 0.1M HCl, pH1+0.01% Tween-20. Reagents were combined (with pepsin added last) in 50% of the final reaction volume for mixing and immediately read on a BioTek Cytation (BioTek Instruments, Winooski, VT) with far-red FP filter cube at excitation/emission of […] for five minutes, in at least triplicate. Averaged polarization values of replicate reads were plotted against probe or labeled pepstatin concentrations in GraphPad Prism 8 (La Jolla, CA). Reagent concentrations yielding greatest dynamic range were selected for the assay. The peptic activity assay was optimized similarly using casein-Alexa647 probe in 0.1M HCl, pH1+0.01% Tween-20. Reagents were combined (adding pepsin last) and read immediately at minimal intervals (<2 minutes apart) over 30 minutes. The assay was performed in triplicate and mean polarization value was plotted over time.
HIV protease inhibitors were dissolved in DMSO. Amprenavir, ritonavir, lopinavir, saquinavir mesylate, nelfinavir mesylate hydrate, darunavir ethanolate, indinavir sulfate salt hydrate were obtained from Sigma-Aldrich. […] Half-maximal inhibitory concentration (IC50) were calculated from kinetic traces analyzed using an online tool (icekat.herokuapp.com/icekat, O1p 2019^95). Percent bound and percent activity were calculated by normalization to the measured polarization value without HIV protease inhibitor compound. […]

porcine pepsin [3] = target: T1, porcine pepsin; assay: peptic activity assay (fluorescence polarization, casein-Alexa647 substrate); assay type: biochemical; conditions: for inhibition of pepsin activity: 200 nM casein-Alexa647, 0.01 U/μL pepsin, 5% DMSO, FIG. 3B; for IC50 for pepsin: bind to and inhibit pepsin, numbers only in FIG. 3
From the text: as §1
Casein was labeled as described by Jolley (1996)^93 using a 2.5 ug/mg label to protein ratio. Specifically, 200 ul 10 mg/ml bovine alpha casein (C6780 Sigma Aldrich, St. Louis, MO) in 0.1M sodium bicarbonate was incubated with 5 ul 1 mg/ml Alexa Fluor 647 Carboxylic Acid, Succinimidyl Ester (in DMSO; A-20106 ThermoFisher Scientific, Waltham, MA) for 15 minutes at room temperature. The mixture was applied to a Sephadex G-25 column (90×5 mm) in a glass Pasteur pipette. Elution was performing using D-PBS pH7.4 (ThermoFisher Scientific) containing 0.1% sodium azide. The fast-moving band containing casein-bound fluorophore was collected in a volume of approximately 0.4 ml. Concentration of resultant probe (casein-Alexa647 in PBS-azide) was estimated via spectrophotometry using Beer's law (Implen Nanophotometer, Implen, Inc. Westlake Village, CA). Probe was aliquoted and stored at −20° C. until use.
as §2
HIV protease inhibitors were dissolved in DMSO. […] Compounds were tested under optimized assay conditions over a range of three logs concentration in triplicate and plotted using GraphPad Prism 8. Half-maximal inhibitory concentration (IC50) were calculated from kinetic traces analyzed using an online tool (icekat.herokuapp.com/icekat, O1p 2019^95). Percent bound and percent activity were calculated by normalization to the measured polarization value without HIV protease inhibitor compound.
Our team developed and optimized two high-throughput screening (HTS) assays to identify compounds that are specific and sensitive inhibitors of pepsin (FIG. 1). The first assay is a binding assay that measures the ability of a compound to compete with fluorescently labeled pepstatin for its binding site on pepsin.

T1 sequence (P00791 60-385): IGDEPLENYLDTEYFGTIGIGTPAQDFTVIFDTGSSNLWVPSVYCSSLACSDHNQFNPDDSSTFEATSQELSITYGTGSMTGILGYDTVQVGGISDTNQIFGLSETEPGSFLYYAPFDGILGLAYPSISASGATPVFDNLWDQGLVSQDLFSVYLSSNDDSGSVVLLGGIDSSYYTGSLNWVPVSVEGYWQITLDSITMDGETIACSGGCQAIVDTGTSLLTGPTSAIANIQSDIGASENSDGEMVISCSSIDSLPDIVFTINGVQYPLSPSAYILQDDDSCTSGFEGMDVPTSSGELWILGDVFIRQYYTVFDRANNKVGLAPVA

Structure (SMILES)	side effects / tolerability [1]	competitive binding to pepsin (porcine pepsin [2])	inhibition of pepsin activity (porcine pepsin [3])	IC50 for pepsin (porcine pepsin [3])
CC(C)CN(C[C@@H](O)[C@H](Cc1ccccc1)NC(=O)O[C@H]1CCOC1)S(=O)(=O)c1ccc(N)cc1 [amprenavir, [(3S)-oxolan-3-yl] N-[(2S,3R)-4-[(4-aminophenyl)sulfonyl-(2-methylpropyl)amino]-3-hydroxy-1-phenylbutan-2-yl]carbamate]	minimal side effects such as diarrhea, nausea and vomiting	competitive binding to pepsin	inhibition of pepsin activity	low micromolar range
CC(C)CN(C[C@@H](O)[C@H](Cc1ccccc1)NC(=O)O[C@H]1CO[C@H]2OCC[C@H]21)S(=O)(=O)c1ccc(N)cc1 [darunavir, [(3a S,4R,6aR)-2,3,3a,4,5,6a-hexahydrofuro[2,3-b]furan-4-yl] N-[(2S,3R)-4-[(4-aminophenyl)sulfonyl-(2-methylpropyl)amino]-3-hydroxy-1-phenylbutan-2-yl]carbamate]		competitive binding to pepsin	inhibition of pepsin activity	low micromolar range; also recorded: lowest IC50
CC(C)c1nc(CN(C)C(=O)N[C@H](C(=O)N[C@@H](Cc2ccccc2)C[C@H](O)[C@H](Cc2ccccc2)NC(=O)OCc2cncs2)C(C)C)cs1 [ritonavir, 1,3-thiazol-5-ylmethyl N-[(2S,3 S,5S)-3-hydroxy-5-[[(2S)-3-methyl-2-[[methyl-[(2-propan-2-yl-1,3-thiazol-4-yl)methyl]carbamoyl]amino]butanoyl]amino]-1,6-diphenylhexan-2-yl]carbamate]	minimal side effects such as diarrhea, nausea and vomiting	competitive binding to pepsin	inhibition of pepsin activity	
CC(C)(C)NC(=O)[C@@H]1C[C@@H]2CCCC[C@@H]2CN1C[C@@H](O)[C@H](Cc1ccccc1)NC(=O)[C@H](CC(N)=O)NC(=O)c1ccc2ccccc2n1 [saquinavir, (2S)—N-[(2S,3R)-4-[(3 S,4aS,8aS)-3-(tert-butylcarbamoyl)-3,4,4a,5,6,7,8,8a-octahydro-1H-isoquinolin-2-yl]-3-hydroxy-1-phenylbutan-2-yl]-2-(quinoline-2-carbonylamino)butanediamide]	can cause QT prolongation, heart block, high blood lipids, and liver problems	competitive binding to pepsin	inhibition of pepsin activity	low micromolar range
